According to ChEMBL document CHEMBL4431358, “Flavonoids and biphenylneolignans with anti-inflammatory activity from the stems of Millettia griffithii” (Bioorg Med Chem Lett, 2016):
Activity calls are given as the source filed them. No cut-off for these calls is given here.

Assays:
[1] = tested on: RAW264.7; test: Inhibition iNOS mRNA expression levels in LPS-induced mouse RAW264.7 cells at 4 uM by RT-PCR analysis; assay type: functional, cell-based
[2] = tested on: RAW264.7; test: Inhibition iNOS protein expression levels in LPS-induced mouse RAW264.7 cells at 4 uM by Western blot analysis; assay type: functional, cell-based
[3] = tested on: RAW264.7; test: Antiinflammatory activity in mouse RAW264.7 cells assessed as inhibition of LPS-induced nitric oxide production preincubated for 1 hr followed by LPS stimulation for 24 hrs by Griess method; assay type: functional, cell-based
[4] = tested on: RAW264.7; test: Antiinflammatory activity in mouse RAW264.7 cells assessed as inhibition of LPS-induced nitric oxide production at 50 uM preincubated for 1 hr followed by LPS stimulation for 24 hrs by Griess method; assay type: functional
[5] = tested on: RAW264.7; test: Cytotoxicity against mouse RAW264.7 cells assessed as reduction in cell viability at 100 uM after 72 hrs by MTT assay; assay type: cell-based; conditions: raw264.7, 72 h
[6] = tested on: RAW264.7; test: Inhibition COX2 mRNA expression levels in LPS-induced mouse RAW264.7 cells at 1 to 4 uM by RT-PCR analysis; assay type: functional, cell-based
[7] = tested on: RAW264.7; test: Inhibition iNOS protein expression levels in LPS-induced mouse RAW264.7 cells at 1 to 4 uM by Western blot analysis; assay type: functional, cell-based
[8] = tested on: RAW264.7; test: Inhibition COX2 protein expression levels in LPS-induced mouse RAW264.7 cells at 1 to 4 uM by Western blot analysis; assay type: functional, cell-based
[9] = tested on: RAW264.7; test: Inhibition iNOS mRNA expression levels in LPS-induced mouse RAW264.7 cells at 1 to 4 uM by RT-PCR analysis; assay type: functional, cell-based

IC50 [3]	SMILES	inhibition [1]	inhibition [2]	inhibition at 50 µM [4]	Activity [5]	inhibition [6]	inhibition [7]	inhibition [8]	inhibition [9]
–	CC(=N)NCc1cccc(CN)c1	Active	Active	–	–	–	–	–	–
20.4 µM	COC1=CC(=O)C(CC=C(C)C)(CC=C(C)C)C2=C1C(=O)C[C@@H](c1ccccc1)O2	–	–	> 50%	Non-Toxic	–	–	–	–
35.7 µM	COc1cc(OC)c2c(=O)c(-c3cc(OC)c(OCC=C(C)C)cc3OC)coc2c1	–	–	> 50%	Non-Toxic	–	–	–	–
2.1 µM	COC1=CC(=O)C(CC=C(C)C)(CC=C(C)C)C(=O)/C1=C(N)\C=C\c1ccccc1	–	–	> 50%	Non-Toxic	inactive	Active	inactive	Active
